Assay results published in patent publication US20140271727A1, “METHOD OF USING AN ANTIDEPRESSANT FOR INCREASING IMMUNITY OF A SUBJECT AND TREATING CANCER” (NATIONAL YANG-MING UNIVERSITY, priority 2013, published 2014).

Legend:
CT26/luc cells = experiment: MTT cell viability assay; format: cell-based, mouse; settings: 0-80 μM for 24, 48 and 72 hrs
Method: The details in preparing the materials and processing relative analyses will be illustrated as follows. First, CT-26 murine colon carcinoma cells (obtained from Taiwan Liposome Company, Taipei, Taiwan) were transfected with the luciferase gene (hereafter called “CT26/luc”). The CT26/luc tumor cells were cultured in RPMI 1640 medium (Invitrogen) supplemented with 10% fetal bovine serum (Hyclone), 100 units/ml of penicillin, and […] streptomycin (Gibco-BRL) at 37° C. in a 5% CO2 atmosphere.
Before starting the following investigation. The cell viability is analyzed. 3-(4,5-Dimethylthiazol-2-yl)-2,5-diphenyltetrazolium bromide (MTT, Sigma, USA) was dissolved in phosphate-buffered saline (145 mM NaCl, 1.4 mM KH2PO4, 4.3 mM Na2HPO4, and 2.7 mM KCl, pH 7.2). The CT26/luc cells were seeded in 96-well plates overnight, and then treated with various concentrations, such as 0, 5, 10, 20, 40, and 80 μM, of mirtazapine for 24, 48, and 72 hrs. And then, cell viability was determined with MTT assay. […] After 4 hours incubation at 37° C., 100 μl DMSO was added to dissolve the MTT formazan, and the absorbance was determined with an ELISA reader (Power Wave X340, Bio-Tek Instrument Inc., USA) using a wavelength of 570 nm for the excitation. […] The cell cycle analysis was assayed using a FACScan (BD Sciences) and analyzed by CellQuest software (BD Sciences).

TNF-α = experiment: Serum TNF-α ELISA; format: in vivo, mouse; settings: tumor-bearing mice with vs without mirtazapine; weekly up to 6 weeks post tumor inoculation
Method: As to the quantification of TNF-α, the whole blood withdrawn from the pouch of each mouse once a week for up to 6 weeks was centrifuged at 600×g for 20 min, and serum was collected. The serum TNF-α level was evaluated with an ELISA kit (eBioscience, USA).

CD4+ and CD8+ T cells = experiment: Lymph node CD4+ and CD8+ T lymphocyte subsets by FACS; format: in vivo, mouse; settings: flow cytometry
Method: Preferably, the results as shown in FIG. 4C and FIG. 4D are performed by a flow cytometer, and a target cell population will be screened out by utilizing at least one flow cytometer to identify different surface markers of different cells. Flow cytometry allows for single cell analysis at speeds far surpassing any other single cell analysis technology in the art. This enables a statistically significant number of cells to be analyzed faster than using other alternative techniques. In a preferred embodiment, a flow cytometer is used with any suitable sample preparation robot or liquid handler that is known in the art. Furthermore, a single laser flow cytometer is used in an embodiment for the analyzing step. In another embodiment, a multi-laser flow cytometer is used for the analyzing step and the present invention is not limited thereto.
(§1) Second, all animal study protocols were approved by the Institutional Animal Care and Use Committee (IACAU) of National Yang Ming University. Mirtazapine (0.25 mg) was dissolved in 0.05 ml of 0.9% NaCl plus 0.5% absolute ethanol for each mouse (i.e. 10 mg/kg.) Male BALB/c mice (initial weights 25±2 g, and purchased from the National Laboratory Animal Center, Taipei, Taiwan) were housed in the cages, five mice per cage, under a 12:12 h reverse light/dark cycle with lights off at 6 pm Animals were handled and weighed daily for a week to reduce any non-specific stress responses. And then, please refer to FIG. 1A and FIG. 1B, FIG. 1A and FIG. 1B are diagrams showing the experimental designs according to an embodiment of the present invention. […] “Wild-type” means the mice are monitored without tumor inoculation and mirtazapine treatment, drug means the mice are monitored with continuous mirtazapine treatment but without tumor inoculation, never means the mice are monitored with tumor inoculation and daily 0.05 ml of 0.9% NaCl plus 0.5% absolute ethanol treatment but without mirtazapine treatment, always means the mice are monitored with mirtazapine treatment initiated 2 weeks before the tumor inoculation, and concurrent means the mice are monitored with tumor inoculation and mirtazapine treatment on the same day, and after means the mice are monitored with mirtazapine treatment initiated 2 weeks post the tumor inoculation. That is, the mice were assayed on day 22 for behaviors, and then sacrificed for the measurement of lymphocyte subsets and performed with ex vivo autoradiography.
(§2) As to the quantification of interleukin-12 (hereafter called “IL-12”), the whole blood withdrawn from the pouch of each mouse was centrifuged at 600×g for 20 min, and serum was collected. The serum IL-12p70 (sIL-12) level was determined using an ELISA kit (R&D Systems, Taiwan). Identification for the lymph node cluster of differentiated CD4+ T helper and CD8+T-cytotoxic lymphocyte subsets was assayed. Briefly, the lymphocytes isolated from the lymph nodes of groins of mice were stained with phycoerythrin-conjugated antimouse CD4 (CD4-PE) monoclonal antibody and peridininchlorophyll-protein-complex-conjugated anti-mouse CD8 (CD8-PerCP) monoclonal antibody (BioLegend, USA). Lymphocyte subsets were identified by FACS analysis using a FACS Calibur flow cytometer. Immunohistochemistry (IHC) of CD4 and CD8 was also performed on day 42 post the tumor inoculation. Tumors were then removed, paraffin embedded, and […] sectioning was performed. The sections were immunohistostained with antibodies against CD4 (BioLegend, USA) and CD8 (BioLegend, USA), respectively. The procedures of immunohistostaining were followed the protocols provided with the IHC kit (Millipore, USA). All images were digitally captured on a Scanscope CS system (Aperio, USA).

IL-12p70 = experiment: Serum IL-12p70 (sIL-12) ELISA in BALB/c mice; format: in vivo, mouse
Method: as §1, §2

BALB/c mice = experiment: Spontaneous motor activity assay; format: in vivo, mouse; settings: continuous mirtazapine 10 mg/kg/d (drug and always); day 22 after tumor inoculation
Method: Second, all animal study protocols were approved by the Institutional Animal Care and Use Committee (IACAU) of National Yang Ming University. Mirtazapine (0.25 mg) was dissolved in 0.05 ml of 0.9% NaCl plus 0.5% absolute ethanol for each mouse (i.e. 10 mg/kg.) Male BALB/c mice (initial weights 25±2 g, and purchased from the National Laboratory Animal Center, Taipei, Taiwan) were housed in the cages, five mice per cage, under a 12:12 h reverse light/dark cycle with lights off at 6 pm Animals were handled and weighed daily for a week to reduce any non-specific stress responses. […] “Wild-type” means the mice are monitored without tumor inoculation and mirtazapine treatment, drug means the mice are monitored with continuous mirtazapine treatment but without tumor inoculation, never means the mice are monitored with tumor inoculation and daily 0.05 ml of 0.9% NaCl plus 0.5% absolute ethanol treatment but without mirtazapine treatment, always means the mice are monitored with mirtazapine treatment initiated 2 weeks before the tumor inoculation, and concurrent means the mice are monitored with tumor inoculation and mirtazapine treatment on the same day, and after means the mice are monitored with mirtazapine treatment initiated 2 weeks post the tumor inoculation. […]

[1] = group Always, CT26/luc tumor-bearing
[2] = group Concurrent, CT26/luc tumor-bearing
[3] = group Drug: continuous mirtazapine 10 mg/kg/d, no tumor
[4] = group after, CT26/luc tumor-bearing

SMILES: CN1CCN2c3ncccc3Cc3ccccc3C2C1 (centres unmarked) [mirtazapine]
- toxicity to CT26 colon cells (CT26/luc cells): nontoxic
- serum TNF-α level (TNF-α): no significant difference
- CD4+ T cells (10^4 events) (CD4+ and CD8+ T cells; [1]): 29.75 ± 1.96%
- CD8+ T cells (10^4 events) (CD4+ and CD8+ T cells; [1]): 32.77 ± 7.43%
- CD4+ T cells (10^4 events) (CD4+ and CD8+ T cells; [2]): 25.77 ± 0.73%
- CD8+ T cells (10^4 events) (CD4+ and CD8+ T cells; [2]): 22.41 ± 5.03%
- CD4+ T cells (10^4 events) (CD4+ and CD8+ T cells; [3]): 30.97 ± 1.40%
- CD8+ T cells (10^4 events) (CD4+ and CD8+ T cells; [3]): 30.95 ± 6.57%
- CD4+ T cells (10^4 events) (CD4+ and CD8+ T cells; [4]): 22.58 ± 1.15%
- CD8+ T cells (10^4 events) (CD4+ and CD8+ T cells; [4]): 15.86 ± 4.78%
- sIL-12 concentration increase (IL-12p70; group after (never: 13 folds)): 16 folds
- sIL-12 concentration (IL-12p70; group after, 6 weeks post tumor inoculation): dropped to the control level
- sIL-12 concentration increase to peak level (IL-12p70; group always, peak at 1 wk post tumor cell inoculation): 18 folds
- sIL-12 concentration increase (IL-12p70; group concurrent (never: 13 folds)): 17 folds
- sIL-12 concentration increase to peak level (IL-12p70; group drug (no tumor), peak at 0 wk post tumor cell inoculation): 13 folds
- sIL-12 concentration (IL-12p70; group drug, 4 wks post tumor cell inoculation, never 7 pg/ml): 42 pg/mL
- spontaneous motor activity (BALB/c mice): no effect
